The target of test [1] is T1, human adenosine A1 receptor (Homo sapiens, UniProt P30542).
T1 construct: expressed in transfected cells; host or cells: HEK293 cells infected with BacMam (the same paragraph also labels the preparation CHO-hA1)
T1 sequence (P30542 1-326): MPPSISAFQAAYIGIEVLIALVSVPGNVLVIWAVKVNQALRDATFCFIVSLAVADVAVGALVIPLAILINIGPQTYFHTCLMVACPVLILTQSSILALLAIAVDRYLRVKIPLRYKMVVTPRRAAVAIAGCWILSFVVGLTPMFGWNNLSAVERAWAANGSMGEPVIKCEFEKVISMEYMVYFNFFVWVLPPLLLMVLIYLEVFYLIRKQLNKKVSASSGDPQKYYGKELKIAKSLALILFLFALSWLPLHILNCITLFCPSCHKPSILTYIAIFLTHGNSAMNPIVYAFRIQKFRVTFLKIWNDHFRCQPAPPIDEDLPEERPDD
In words: Inhibition binding assay, human adenosine A1 receptor membranes, [3H]DPCPX. The settings on record: 1 nM [3H]DPCPX, 25° C., 1 h; IC50 converted to Ki with Cheng-Prusoff; read-out: A1 pKi (converted). In outline:
(§1)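 Membranes from BacMam-infected HEK293 cells (0.2 μg A2A, 1.4 μg A1) incubated 1 h at 25° C with test compound and 1 nM [3H]ZM241385 (A2A; 50 mM Tris-HCl pH 7.4) or [3H]DPCPX (A1; plus 100 mM NaCl, 10 mM MgCl2). Nonspecific: 1 μM CGS15943 or DPCPX. Filtration, scintillation; IC50 converted to Ki via Cheng-Prusoff.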

Test [2] deals with T2, human adenosine A2A receptor (Homo sapiens, UniProt P29274).
T2 construct: expressed in transfected cells; host or cells: HEK293 cells infected with BacMam
T2 sequence (P29274 whole entry): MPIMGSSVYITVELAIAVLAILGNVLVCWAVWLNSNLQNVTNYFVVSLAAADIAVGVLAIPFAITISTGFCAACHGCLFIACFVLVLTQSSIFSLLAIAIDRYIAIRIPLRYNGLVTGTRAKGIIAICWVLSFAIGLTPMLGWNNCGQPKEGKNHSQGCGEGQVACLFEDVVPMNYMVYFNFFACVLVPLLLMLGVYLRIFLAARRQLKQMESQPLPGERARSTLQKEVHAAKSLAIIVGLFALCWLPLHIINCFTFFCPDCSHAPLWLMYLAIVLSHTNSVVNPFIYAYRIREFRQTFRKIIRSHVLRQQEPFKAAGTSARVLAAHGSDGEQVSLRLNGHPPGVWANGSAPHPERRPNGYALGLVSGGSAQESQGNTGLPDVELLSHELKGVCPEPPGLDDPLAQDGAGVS
In words: Inhibition binding assay, human adenosine A2A receptor membranes, [3H]ZM241385. The settings on record: 1 nM [3H]ZM241385, HEK293-hA2A membranes, 25° C., 1 h; IC50 converted to Ki with Cheng-Prusoff; read-out: A2A pKi (converted). In outline: as §1

In test [3] the target is T3, human CB-1 cannabinoid receptor (Homo sapiens, UniProt P21554).
T3 construct: expressed in transfected cells; host or cells: CHO cells
T3 sequence (P21554 whole entry): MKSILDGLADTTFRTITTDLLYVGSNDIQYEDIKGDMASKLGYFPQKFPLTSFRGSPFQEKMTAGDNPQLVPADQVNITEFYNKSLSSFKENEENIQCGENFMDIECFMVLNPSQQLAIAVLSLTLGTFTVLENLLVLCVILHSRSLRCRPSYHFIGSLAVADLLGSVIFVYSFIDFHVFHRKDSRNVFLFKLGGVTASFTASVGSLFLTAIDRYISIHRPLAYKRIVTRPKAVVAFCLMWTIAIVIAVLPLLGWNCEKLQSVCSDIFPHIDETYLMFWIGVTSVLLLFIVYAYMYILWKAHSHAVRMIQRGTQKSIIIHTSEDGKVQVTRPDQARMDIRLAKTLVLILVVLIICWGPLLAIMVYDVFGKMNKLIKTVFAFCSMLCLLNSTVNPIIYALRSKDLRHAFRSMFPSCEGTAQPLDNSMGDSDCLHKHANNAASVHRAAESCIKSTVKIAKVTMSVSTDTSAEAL
The test can be described thus: CB1 receptor radioligand binding assay, [3H]CP 55940, transfected CHO cell membranes. The settings on record: 0.5 nM [3H]CP 55940, CHO membrane homogenates, 120 min at 37° C. The procedure:
Nonspecific binding is determined in the presence of 10 μM WIN 55212-2.
Following incubation, the samples are filtered rapidly under vacuum through glass fiber filters (GF/B, Packard) presoaked with 0.3% PEI and rinsed several times with an ice-cold buffer containing 50 mM Tris-HCl (pH 7.4) and 0.5% BSA using a 96-sample cell harvester (Unifilter, Packard). The filters are dried then counted for radioactivity in a scintillation counter (Topcount, Packard) using a scintillation cocktail (Microscint 0, Packard).
The standard reference compound is CP 55940 which is tested in each experiment at several concentrations to obtain a competition curve from which its IC50 is calculated.

The next test deals with T4, human CB1 receptor (Homo sapiens, UniProt P21554).
T4 construct: expressed in transfected cells; host or cells: CHO cells
T4 sequence (P21554 whole entry): as above
The test can be described thus: CB1 receptor antagonism, agonist-induced cAMP modulation (HTRF) in transfected CHO cells. The format is cell-based. As to conditions: read-out: Antag IC50. The procedure:
Receptor antagonism: Evaluation of the antagonist activity of compounds at the human CB1 receptor expressed in transfected CHO cells, determined by measuring their effects on agonist-induced cAMP modulation using the HTRF detection method.
Thereafter, the reference agonist CP 55940 and the adenylyl cyclase activator NKH 477 are added at respective final concentrations of 3 nM and 3 μM.
For basal control measurements, CP 55940 is omitted from the wells containing 3 μM AM 281.
Following 20 min incubation at 37° C., the cells are lysed and the fluorescence acceptor (D2-labeled cAMP) and fluorescence donor (anti-cAMP antibody labeled with europium cryptate) are added.
After 60 min at room temperature, the fluorescence transfer is measured at λex=337 nm and λem=620 and 665 nm using a microplate reader (Rubystar, BMG). The cAMP concentration is determined by dividing the signal measured at 665 nm by that measured at 620 nm (ratio).
The standard reference antagonist is AM 281, which is tested in each experiment at several concentrations to generate a concentration-response curve from which its IC50 value is calculated.

This is an account of results in US12528815B2, “5-amino-8-(4-pyridyl)-[1,2,4]triazolo[4,3-c]pyrimidin-3-one compounds for use against cancer” (Nxera Pharma UK Limited, priority 2020, dated 2026).

As for `Cc1cc(-c2c(-c3ccccc3)nc(N)n3c(=O)n(CCc4ccccc4)nc23)cc(C)n1` [Example 1-80, 5-amino-8-(2,6-dimethyl-4-pyridyl)-7-phenyl-2-(2-phenylethyl)-[1,2,4]triazolo[4,3-c]pyrimidin-3-one], the Ki in test [1] was 126 nM; in test [2], 2 nM; in test [3], 10800 nM. For the same compound, at human CB1 receptor, the 50% inhibitory concentration (IC50) was 10200 nM.

Regarding `COc1ccc(-c2nc(N)n3c(=O)n(CCC(F)(F)F)nc3c2-c2cc(C)nc(C)c2)cc1` [Example 2-35, 5-amino-8-(2,6-dimethyl-4-pyridyl)-7-(4-methoxyphenyl)-2-(3,3,3-trifluoropropyl)-[1,2,4]triazolo[4,3-c]pyrimidin-3-one], the results for the Ki in test [1], in test [2] and in test [3] were 79.4 nM, 1.26 nM and 18800 nM, respectively.

As for `Cc1cc(-c2c(-c3ccccc3)nc(N)n3c(=O)n(CC(C)C)nc23)cc(C)[n+]1[O-]` [Example 2-57, 5-amino-8-(2,6-dimethyl-1-oxido-pyridin-1-ium-4-yl)-2-isobutyl-7-phenyl-[1,2,4]triazolo[4,3-c]pyrimidin-3-one], the Ki is 251 nM in test [1], 10 nM in test [2] and 72700 nM in test [3]. In addition, the IC50 on human CB1 receptor is greater than 100000 nM.

As to `Cc1cc(-c2c(-c3ccccc3)nc(N)n3c(=O)n(Cc4ccc(F)cn4)nc23)cc(C)[n+]1[O-]` [Example 1-42, 5-amino-8-(2,6-dimethyl-1-oxido-pyridin-1-ium-4-yl)-2-[(5-fluoro-2-pyridyl)methyl]-7-phenyl-[1,2,4]triazolo[4,3-c]pyrimidin-3-one], the Ki in test [1] is 251 nM; in test [2], 15.8 nM; in test [3], 73400 nM. The IC50 on human CB1 receptor was greater than 100000 nM.

`Cc1cc(-c2c(-c3ccc(F)cc3)nc(N)n3c(=O)n(Cc4cccnn4)nc23)cc(C)n1` [Example 1-41, 5-amino-8-(2,6-dimethyl-4-pyridyl)-7-(4-fluorophenyl)-2-(pyridazin-3-ylmethyl)-[1,2,4]triazolo[4,3-c]pyrimidin-3-one]: the Ki in test [1] is 398 nM; in test [2] it was 2.51 nM; in test [3] it was 45600 nM. In addition, at human CB1 receptor, the IC50 is 43100 nM.

`Cc1cc(-c2c(-c3ccccc3)nc(N)n3c(=O)n(CC4CCC(F)(F)C4)nc23)cc(C)n1` (stereo not shown) [Example 2-26, 5-amino-2-[(3,3-difluorocyclopentyl)methyl]-8-(2,6-dimethyl-4-pyridyl)-7-phenyl-[1,2,4]triazolo[4,3-c]pyrimidin-3-one]: the Ki was 100 nM in test [1], 0.398 nM in test [2] and 3900 nM in test [3]. In addition, the half-inhibitory concentration (IC50) at human CB1 receptor was 3500 nM.

With `Cc1cc(-c2c(-c3ccccc3)nc(N)n3c(=O)n(CC45C6C7C4C4C5C6C74F)nc23)cc(CO)n1` (stereo not shown) [Example 2-60, 5-amino-2-[(4-fluorocuban-1-yl)methyl]-8-[2-(hydroxymethyl)-6-methyl-4-pyridyl]-7-phenyl-[1,2,4]triazolo[4,3-c]pyrimidin-3-one], the results for the Ki in test [1], in test [2] and in test [3] were 200 nM, 7.94 nM and 14600 nM, respectively. Also, the 50% inhibitory concentration (IC50) on human CB1 receptor was determined as 2400 nM.

Regarding `Nc1nc(Cn2nc3c(-c4cc(Cl)nc(CO)c4)c(-c4ccccc4)nc(N)n3c2=O)ccc1F` [Example 1-70, 5-amino-2-[(6-amino-5-fluoro-2-pyridyl)methyl]-8-[2-chloro-6-(hydroxymethyl)-4-pyridyl]-7-phenyl-[1,2,4]triazolo[4,3-c]pyrimidin-3-one], the Ki is 50.1 nM in test [1], 0.316 nM in test [2] and 61300 nM in test [3]. The half-maximal inhibitory concentration (IC50) at human CB1 receptor is greater than 100000 nM.

As to `Cc1cc(-c2c(-c3ccccc3)nc(N)n3c(=O)n(C[C@H]4CNCCO4)nc23)cc(C)n1` [Example 2-66, (R)-5-amino-8-(2,6-dimethylpyridin-4-yl)-2-(morpholin-2-ylmethyl)-7-phenyl-[1,2,4]triazolo[4,3-c]pyrimidin-3(2H)-one], the results for the Ki in test [1] and in test [2] were 1000 nM and 6.31 nM, respectively. Also, the IC50 on human CB1 receptor is greater than 100000 nM.

Take `CCN(C)c1nc(N)n2c(=O)n(CCC(F)(F)F)nc2c1-c1cc(C)nc(C)c1` [Example 3-4, 5-amino-8-(2,6-dimethyl-4-pyridyl)-7-[ethyl(methyl)amino]-2-(3,3,3-trifluoropropyl)-[1,2,4]triazolo[4,3-c]pyrimidin-3-one]: the Ki in test [1] was greater than 3160 nM; in test [2] it was 126 nM. At human CB1 receptor, the IC50 was greater than 100000 nM.

With `Cc1cc(-c2c(-c3ccccc3)nc(N)n3c(=O)n(CCC(F)(F)F)nc23)cc(C)[n+]1[O-]` [Example 2-56, 5-amino-8-(2,6-dimethyl-1-oxido-pyridin-1-ium-4-yl)-7-phenyl-2-(3,3,3-trifluoropropyl)-[1,2,4]triazolo[4,3-c]pyrimidin-3-one], the Ki in test [1] was 316 nM; in test [2], 12.6 nM. Besides, the IC50 at human CB1 receptor is greater than 100000 nM.

For `COCCn1nc2c(-c3cc(C)nc(C)c3)c(-c3ccccc3)nc(N)n2c1=O` [Example 2-10, 5-amino-8-(2,6-dimethyl-4-pyridyl)-2-(2-methoxyethyl)-7-phenyl-[1,2,4]triazolo[4,3-c]pyrimidin-3-one], the Ki in test [1] is 251 nM; in test [2], 10 nM. Further, the IC50 at human CB1 receptor is greater than 100000 nM.

Turning to `CCOC(=O)N(C)CCn1nc2c(-c3cc(C)nc(C)c3)c(-c3ccccc3)nc(N)n2c1=O` [Example 2-13, ethyl N-[2-[5-amino-8-(2,6-dimethyl-4-pyridyl)-3-oxo-7-phenyl-[1,2,4]triazolo[4,3-c]pyrimidin-2-yl]ethyl]-N-methyl-carbamate], the Ki in test [1] is 501 nM; in test [2] it was 15.8 nM. Moreover, the 50% inhibitory concentration (IC50) on human CB1 receptor was greater than 100000 nM.

Consider `COc1cc(-c2c(-c3ccccc3)nc(N)n3c(=O)n(CCC(F)(F)F)nc23)cc(CO)n1` [Example 2-46, 5-amino-8-[2-(hydroxymethyl)-6-methoxy-4-pyridyl]-7-phenyl-2-(3,3,3-trifluoropropyl)-[1,2,4]triazolo[4,3-c]pyrimidin-3-one], for which the Ki is 1 nM in test [2] and 61000 nM in test [3]. The concentration for half-maximal inhibition (IC50) on human CB1 receptor is greater than 100000 nM.

As to `Cc1cc(-c2c(-c3ccc(F)cc3)nc(N)n3c(=O)n(CCC(F)(F)F)nc23)cc(CO)n1` [Example 2-64, 5-amino-7-(4-fluorophenyl)-8-[2-(hydroxymethyl)-6-methyl-4-pyridyl]-2-(3,3,3-trifluoropropyl)-[1,2,4]triazolo[4,3-c]pyrimidin-3-one], the Ki is greater than 1260 nM in test [1] and 1.58 nM in test [2]. Besides, the IC50 at human CB1 receptor was 37400 nM.

As to `COc1nc(Cn2nc3c(-c4cc(C)nc(C)c4)c(-c4ccccc4)nc(N)n3c2=O)ccc1F` [Example 1-7, 5-amino-8-(2,6-dimethyl-4-pyridyl)-2-[(5-fluoro-6-methoxy-2-pyridyl)methyl]-7-phenyl-[1,2,4]triazolo[4,3-c]pyrimidin-3-one], the Ki in test [1] was 398 nM; in test [2], 3.98 nM. Besides, the concentration for half-maximal inhibition (IC50) at human CB1 receptor turned out to be 3200 nM.

Consider `Cc1cc(-c2c(-c3ccccc3)nc(N)n3c(=O)n(Cc4ccc(F)c(N)n4)nc23)cc(CO)n1` [Example 1-45, 5-amino-2-[(6-amino-5-fluoro-2-pyridyl)methyl]-8-[2-(hydroxymethyl)-6-methyl-4-pyridyl]-7-phenyl-[1,2,4]triazolo[4,3-c]pyrimidin-3-one], for which the values for the Ki in test [1] and in test [2] were 126 nM and 0.794 nM, respectively. In addition, at human CB1 receptor, the half-inhibitory concentration (IC50) was greater than 100000 nM.
